Experiments:
[1] = tested on: allograft; conditions: in vivo; cited from earlier work
[2] = biological target: T1, CD209 (Homo sapiens, UniProt Q9NNX6); conditions: cited from earlier work
T1 sequence (Q9NNX6 1-404): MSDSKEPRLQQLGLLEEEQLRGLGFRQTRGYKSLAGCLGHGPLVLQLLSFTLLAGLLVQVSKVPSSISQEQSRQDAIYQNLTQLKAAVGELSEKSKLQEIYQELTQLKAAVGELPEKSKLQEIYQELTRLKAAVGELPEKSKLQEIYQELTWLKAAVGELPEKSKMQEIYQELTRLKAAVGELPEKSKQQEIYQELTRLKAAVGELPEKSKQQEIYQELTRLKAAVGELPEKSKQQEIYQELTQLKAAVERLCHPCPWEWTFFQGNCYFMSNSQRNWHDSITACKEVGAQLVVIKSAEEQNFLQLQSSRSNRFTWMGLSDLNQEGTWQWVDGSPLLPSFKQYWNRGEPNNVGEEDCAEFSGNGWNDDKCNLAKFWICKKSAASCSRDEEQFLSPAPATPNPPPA

[3] = tested on: RAW 264.7 macrophage; conditions: cited from earlier work
[4] = biological target: T2, Mer (Homo sapiens, UniProt Q12866); conditions: exogenous ligand; cited from earlier work
T2 sequence (Q12866 21-999): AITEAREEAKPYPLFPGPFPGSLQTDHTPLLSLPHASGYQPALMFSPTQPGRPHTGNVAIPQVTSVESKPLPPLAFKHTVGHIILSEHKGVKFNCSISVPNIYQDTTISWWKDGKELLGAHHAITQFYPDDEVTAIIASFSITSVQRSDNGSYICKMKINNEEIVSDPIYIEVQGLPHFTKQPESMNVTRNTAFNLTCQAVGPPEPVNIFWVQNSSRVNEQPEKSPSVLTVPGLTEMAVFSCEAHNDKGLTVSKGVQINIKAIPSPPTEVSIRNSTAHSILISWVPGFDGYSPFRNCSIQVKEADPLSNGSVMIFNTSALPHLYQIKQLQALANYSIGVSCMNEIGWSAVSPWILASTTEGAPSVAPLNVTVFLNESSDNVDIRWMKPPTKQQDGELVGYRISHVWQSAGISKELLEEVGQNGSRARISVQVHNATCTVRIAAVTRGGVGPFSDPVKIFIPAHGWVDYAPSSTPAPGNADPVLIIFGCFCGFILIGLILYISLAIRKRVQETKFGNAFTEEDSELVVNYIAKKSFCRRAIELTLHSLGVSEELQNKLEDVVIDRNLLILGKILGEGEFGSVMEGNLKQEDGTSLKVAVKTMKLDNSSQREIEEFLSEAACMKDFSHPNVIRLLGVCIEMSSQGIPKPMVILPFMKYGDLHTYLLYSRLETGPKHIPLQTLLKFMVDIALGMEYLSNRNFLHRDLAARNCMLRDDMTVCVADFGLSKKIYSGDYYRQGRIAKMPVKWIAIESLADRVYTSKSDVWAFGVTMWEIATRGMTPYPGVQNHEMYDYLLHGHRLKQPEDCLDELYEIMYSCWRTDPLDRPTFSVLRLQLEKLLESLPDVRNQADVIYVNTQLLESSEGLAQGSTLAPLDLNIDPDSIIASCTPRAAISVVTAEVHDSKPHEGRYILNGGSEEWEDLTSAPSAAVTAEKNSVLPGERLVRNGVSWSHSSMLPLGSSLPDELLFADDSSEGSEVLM

[5] = tested on: RAW264.7 cells; experiment: High-throughput screen of cytokine production by LPS-stimulated RAW264.7 macrophages; assay type: cell-based
From the text: Since macrophages are one immune cell thought to be important in immune responses, including tolerance through their production of a key immune mediator called Interleukin-10 (IL-10), we developed an in vitro approach to screening the effects of EDC-cells versus PLGA nanoparticles for their effects on IL-10 production.
We examined the proinflammatory response (IL-6) or anti-inflammatory response (IL-10), as outlined in FIG. 2.
Using the strategy in FIG. 2, we calculated the greatest fold change for cytokine production over a therapeutically relevant dose curve of 0.1, 1, 10, and 100 μM.
Using activated RAW macrophages we developed a high throughput screening method to identify tolerogenic signals.
In support of our overarching concept that ECDI-fixed NPs are lacking signals for induction of tolerogenic signals, we have examined the ability to modulate cytokine responses in a macrophage cell line (RAW264.7).

[6] = macrophages stimulated with LPS

CC(=O)N[C@H]1[C@H](O[C@H]2[C@@H](O)[C@@H](CO)O[C@@H](O[C@H]3[C@H](O)[C@@H](O)C(O)O[C@@H]3CO)[C@@H]2O)O[C@H](CO)[C@@H](O[C@@H]2O[C@H](CO)[C@H](O)[C@H](O)[C@H]2O)[C@@H]1O[C@@H]1O[C@@H](C)[C@@H](O)[C@@H](O)[C@@H]1O (some centres unmarked) [LNFPIII, Lacto-N-fuconentaose III]
allograft survival [1]: prolong allograft survival | binding and signalling through CD209 [2]: binds and signals through CD209

C[C@H]1CC[C@@H]2N(C1)C[C@H]1[C@@H]3C[C@H]4[C@@H](C[C@H](O)[C@H]5C[C@@H](O)CC[C@@]54C)[C@@H]3CC[C@@H]1[C@]2(C)O [peimine]
inflammatory response (decrease of pro-inflammatory cytokines, increase in IL-10/TGF13) [3]: inhibit this inflammatory response

Protein S: cognate ligand for TAM RTKs
tyrosine autophosphorylation / signalling of Mer [4]: only capable of signaling through Mer

C[C@H](O)[C@@H](O)[C@@H](O)[C@H](O)C=O [Fucose, L-Fucose]
tolerogenic signal (increase IL-10 secretion and/or decrease IL-6 secretion versus baseline) ([5]; macrophages activated with LPS, with or without ECDI-SP, dose curve 0.1, 1, 10, 100 μM): exhibiting a tolerogenic signal

CC(=O)N[C@H]1C(O)O[C@H](CO)[C@@H](O[C@@H]2O[C@H](CO)[C@H](O)[C@H](O)[C@H]2O)[C@@H]1O[C@@H]1O[C@@H](C)[C@@H](O)[C@@H](O)[C@@H]1O (some centres unmarked) [Lewis^x antigen]
IL-6 production [5, 6]: suppression of IL-6 production | IL-10 production [5, 6]: enhancement of IL-10

Nc1ncnc2c1ncn2[C@@H]1O[C@H](CO)[C@@H](O)[C@H]1O [adenosine]
inflammatory response (decrease of pro-inflammatory cytokines, increase in IL-10/TGF13) [3]: inhibit this inflammatory response

GAS6: Growth Arrest-Specific 6, cognate ligand for TAM RTKs
tyrosine autophosphorylation / signalling of Mer [4]: stimulate tyrosine autophosphorylation of both Mer and Ax1

C[C@H]1O[C@@H](O[C@H]2CC[C@@]3(C)[C@@H](CC[C@]4(C)[C@@H]3C=C[C@]35OC[C@@]6(CCC(C)(C)C[C@H]63)[C@@H](O)C[C@]54C)[C@]2(C)CO)[C@H](O)[C@@H](O[C@@H]2O[C@H](CO)[C@@H](O)[C@H](O)[C@H]2O)[C@H]1O [saikosaponin A]
inflammatory response (decrease of pro-inflammatory cytokines, increase in IL-10/TGF13) [3]: inhibit this inflammatory response

CCCCCC(=O)CC(=O)/C=C/c1ccc(O)c(OC)c1 [6-dehydrogingerdione]
inflammatory response (decrease of pro-inflammatory cytokines, increase in IL-10/TGF13) [3]: inhibit this inflammatory response
